From patent US20090232909A1, “Method for determining physiological effects of hemoglobin” (priority 1999, published 2009)

How the values were obtained:
[1] = tested on: IOVs; assay: Binding of SNO-Hb to IOVs from native or DIDS-treated RBCs; settings: 10 mM MOPS, pH 7, 21% O2
Experimental: Immunoprecipitation was carried out by incubation of TX-100 or NP-40 extracts with antibodies followed by protein G-Sepharose. We employed two monoclonal anti-AE1 antibodies (Sigma, clone BIII-136, and kindly provided by M. Telen) that recognized epitopes in the cytoplasmic domain and that produced indistinguishable results. Immune complexes were eluted with 10 mM glycine at pH 3.0, and eluates were adjusted immediately to pH 7.4 followed by photolysis/chemiluminescence. Efficiency of immunoprecipitation was confirmed by Western blotting. Binding of SNO-Hb to IOVs was assessed in 10 mM MOPS buffer, pH 7, at room temperature and 21% O2. Incubation was for 15 mins before IOVs were solubilized in 1% TX-100, and heme content was assessed spectrophotometrically. When employed, RBCs were treated for 60 mins with DIDS (0.1 mM; calculated 10-fold molar excess over AE1), then washed thoroughly to remove unreacted DIDS. RBCs were then exposed to NO (as above) or used to prepare DIDS-modified IOVs (as above).

[2] = biological target: T1, oxyHb (Homo sapiens, UniProt P68871+P69905); assay: Nitrosyl content of normoxic oxyHb after exposure to NO, photolysis-chemiluminescence; type: biochemical
T1 construct: purchased Apex Bioscience (Research Triangle Park, N.C.)
Experimental: Nitroso/nitrosyl derivatives of Hb were measured using a photolysis-chemiluminescence technique [6-fold excess HgCl2 over protein was added to displace S-nitrosothiol (SNO) (Stamler, J. S., et al., Science, 276:2034-2037, 1997)]. Samples were kept on ice for a period of 5 minutes to 2 hours before analyses. MetHb was monitored by UV-visible spectroscopy as the difference absorption above the linear baseline (600-700 nm), and EPR (below).
(A) Nitrosyl content of oxyHb (10 mM phosphate 100 μM DTPA, pH 7.4) after exposure to 1.2 μM NO, as measured by photolysis-chemiluminescence (Stamler, J. S., et al., Science, 276:2034-2037, 1997). Nitrosyl yield increases as a function of Hb concentration (P<0.05). Solid symbols, absolute yield of NO bound to Hb (FeNO plus SNO); open symbols, percentage of NO added. Data shown are the average of 7 to 19 experiments±SE. (B) Standard difference spectra of metHb (solid line), deoxyHb (dotted line), and iron nitrosylHb (dashed line) vs. oxyHb. (C) Difference spectra generated from the exposure of NO to normoxic (≈99% oxygen saturation) Hb. NO was added (in 10 aliquots totaling 2.2 μM) to 33 μM Hb in 100 mM phosphate (solid line) or 10 mM phosphate (dotted line) or 10 mM phosphate plus 0.05% borate (dashed line). […] Specifically, spectra in C were fitted, by a least-squares process, to either the simple competition model or the cooperativity model without a mass balance constraint. Cooperativity is present if add increases above that reported in the literature, as a function of oxygen tension.
(A) SOD increases the yield of NO bound to Hb. The experiments in FIG. 3A were repeated in the absence (solid line; 1.2 μM NO) or presence (dashed line; 1.5 μM NO) of 1, 190 units/ml of SOD, which enhances the yield of nitrosyl species to approximately 100% of the NO added. Similar nitrosyl yields were obtained by using stroma-free Hb (25 μM), which is enriched in endogenous SOD (open circle). Data shown are the average of five to nine experiments±SE. (B) EPR spectrum of a DNIC formed by exposure of oxyHb (≈99% sat; 3.93 mM) to NO (36 μM). (C)S-nitrosoHb and iron nitrosylHb formed by exposure of oxyHb (=99% sat., 48 μM) to NO (1.2 μM). SNO (hatched bar) and FeNO (solid bar) were measured by photolysis-chemiluminescence (Stamler, J. S., et al., Science, 276:2034-2037, 1997). Data shown are the average of 12 experiments±SE. (D) Measurement of intraerythrocytic S-nitrosoHb and iron nitrosylHb formed by exposure of oxygenated RBCs (mean [Hb], 25 μM) to 0.3 μM NO. Isolation of Hb and measurements were as previously described (Stamler, J. S., et al., Science, 276:2034-2037, 1997). Data are the mean of 12 experiments±SE.

SMILES | SNO-Hb binding to IOVs from native vs DIDS-treated RBCs [1] | nitrosyl yield ([2]; 1.2 μM NO added to 48 μM oxyHb) | share of nitrosyl yield that is SNO ([2]; 1.2 μM NO added to 48 μM oxyHb) | nitrosyl yield relative to the [Hb] ([2]; 1.2 μM NO, ≈99% O2 saturation, 10 mM phosphate) | maximum yield of nitrosyl species ([2]; 1.2 μM NO, ≈99% O2 saturation, 10 mM phosphate, increasing [Hb]) | nitrosyl yields under normoxic conditions ([2]; heme vacancies only ≈1%)
O=S(=O)(O)c1cc(N=C=S)ccc1C=Cc1ccc(N=C=S)cc1S(=O)(=O)O [DIDS, 4,4′-diisothiocyanatostilbene-2,2′-disulfonic acid] | equal affinity | – | – | – | – | –
[N]=O [NO, nitric oxide] | – | approximately 500 nM | ≈ 80% | 3 to 0.6% | approximately 50 % of NO added | ≤ 6 % of Hb
